The results in this text go back to article PMC8546892 (Acta Pharmaceutica Sinica. B, 2021).

For the assay, the system named is GSK-3β. The assay can be described thus: Immunoblot of GSK-3β in Trib3-silenced AMs with MG132 or 3MA. The assay is classed as cell-based, mouse. The settings on record: immunoblots, Fig. S4C. Background: Immunoblotting shows a protein as a band on a membrane.

Each structure is given as a SMILES string. Residues, ends and D or L forms follow the SMILES beside them. *: point of attachment. Cbz = O=C(OCc1ccccc1)*

`CC(C)C[C@@H](C=O)NC(=O)[C@H](CC(C)C)NC(=O)[C@H](CC(C)C)NC(=O)OCc1ccccc1` [MG132] (Cbz-Leu-Leu-Leu-aldehyde): the “Trib3 depletion-induced reduction in GSK-3β expression” value was “reversed”.
